In US6677350B1, “Beta-fluoroethyl thiourea compounds and use” (priority 1999, dated 2004):
≈ marks a conversion by molar mass, not a printed value. Where “and” joins values, the source holds several entries; their conditions need not be identical. Equal entries are not always repeated. Where two headings read alike, the source gives them in different places.

Tests used:
Mtb = assay: Actual minimum inhibitory concentration (MIC), lowest concentration inhibiting 99% of the inoculum; format: cell-based, Mycobacterium tuberculosis; conditions: read-out: minimum inhibitory concentration (MIC)
[1] = test system: M. tuberculosis H37Rv (ATCC 27294); assay: In vitro anti-tuberculosis screening, BACTEC 460 radiometric system, percent inhibition of growth; format: cell-based, Mycobacterium tuberculosis; conditions: for inhibition at 12.5 µg/mL: Mycobacterium tuberculosis
[2] = read-out: Activity % inhibition at 12.5 μg/mL (chalcone-like compounds), Mtb H37Rv, 12.5 μg/mL, BACTEC 12B medium
[3] = read-out: inhibition of the growth of Mtb, Mtb H37Rv, drug concentration 12.5 μg/mL
[4] = Mycobacterium tuberculosis, lowest concentration inhibiting 99% of the inoculum
[5] = Mtb H37Rv, 12.5 μg/mL, BACTEC 12B medium, read-out: Activity % inhibition at 12.5 μg/mL (chalcones)
[6] = Mtb H37Rv, drug concentration 12.5 μg/mL, read-out: inhibition of the growth of Mtb
[7] = Mtb H37Rv, 12.5 μg/mL, BACTEC 12B medium
[8] = Mtb H37Rv, drug concentration 12.5 μg/mL

## O=C(C=Cc1cc2ccccc2c2ccccc12)c1cccc(O)c1 [Compound 54, 1-(3-Hydroxyphenyl)-3-phenanthren-9-yl-2-propen-1-one]
other
  melting point: 212 to 213 °C
Mtb; Mycobacterium tuberculosis
  MIC: 19.2 µM (≈ 6.23 µg/mL)
[1]; [2]
  inhibition at 12.5 µg/mL: 97%
[1]; [3]
  inhibition at 12.5 µg/mL: 97%

## O=C(/C=C/c1cccc(I)c1)c1ccccc1O [Compound 40, 3-Iodo-2′-hydroxychalcone]
Mtb; [4]
  MIC: > 35.7 µM
[1]; [5]
  inhibition at 12.5 µg/mL: 92%
[1]; [6]
  inhibition at 12.5 µg/mL: 92%

## COc1ccc(Br)c2c1C(=O)CC(c1ccccc1)O2 (centres unmarked) [Compound 133, 5-Methoxy-8-bromo-flavanone]
other
  melting point: 134 to 165 °C
[1]; Mtb H37Rv, 12.5 μg/mL, BACTEC 12B medium, read-out: Activity % Inhibition at 12.5 μg/mL (flavanones)
  inhibition at 12.5 µg/mL: 87%
[1]; [6]
  inhibition at 12.5 µg/mL: 87%

## O=C(C=Cc1ccccc1)c1ccco1 [Compound 56, 1-(Furan-2-yl)-3-phenyl-2-propen-1-one]
other
  melting point: 94 to 95 °C
Mtb; Mycobacterium tuberculosis
  MIC: 31.5 µM (≈ 6.24 µg/mL)
[1]; [2]
  inhibition at 12.5 µg/mL: 96%
[1]; [3]
  inhibition at 12.5 µg/mL: 96%

## COc1ccc(-c2cc(=O)c3c(OC)c(-c4c(OC)cc5oc(-c6ccc(OC)cc6)cc(=O)c5c4OC)c(OC)cc3o2)cc1 [Compound 151, 6,6″-Biapigenin hexamethylether]
other
  melting point: 303 to 304 °C
Mtb; [4]
  MIC: > 20.1 µM
[1]; Mtb H37Rv, 12.5 μg/mL, BACTEC 12B medium, read-out: Activity % Inhibition at 12.5 μg/mL (biflavonoids)
  inhibition at 12.5 µg/mL: 96%
[1]; [6]
  inhibition at 12.5 µg/mL: 96%

## O=C(C=Cc1cccnc1)c1ccc(F)cc1 [Compound 53, 1-(4-Fluorophenyl)-3-(pyridin-3-yl)-2-propen-1-one]
other
  melting point: 126 to 127 °C
Mtb; Mycobacterium tuberculosis
  MIC: 6.8 µM (≈ 1.55 µg/mL)
[1]; [2]
  inhibition at 12.5 µg/mL: 98%
[1]; [3]
  inhibition at 12.5 µg/mL: 98%

## O=C(/C=C/c1cccc(Cl)c1)c1ccccc1O [Compound 24, 3-Chloro-2′-hydroxychalcone]
other
  melting point: 108 to 108.5 °C
Mtb; [4]
  MIC: 48.3 µM (≈ 12.5 µg/mL)
[1]; [5]
  inhibition at 12.5 µg/mL: 90%
[1]; [6]
  inhibition at 12.5 µg/mL: 90%

## 1-(5-pyridin-2-yl)-3-(phenanthen-9-yl)-2-propen-1-one [Compound 55]
Mtb; lowest concentration inhibiting 99% of the inoculum
  MIC: 20.2 µM
[1]; [7]
  Activity % inhibition at 12.5 μg/mL (chalcone-like compounds): 96%

## COc1ccc(-c2oc3ccccc3c(=O)c2Br)cc1 [Compound 96]
[1]; [7]
  Activity % Inhibition at 12.5 μg/mL (flavones): 28%

## O=C1CC(c2ccc(O)c(O)c2)Oc2c1c(O)cc(OC1OC(CO)C(O)C(O)C1O)c2C1C(=O)c2c(O)cc(O)cc2OC1c1ccc(O)cc1 (centres unmarked) [Compound 179, Xanthochymuside]
[1]; [7]
  Activity % Inhibition at 12.5 μg/mL (biflavonoids): 0%

## O=C1C[C@@H](c2ccc(O)cc2)Oc2c1c(O)cc(O[C@@H]1O[C@H](CO)[C@@H](O)[C@H](O)[C@H]1O)c2[C@H]1C(=O)c2c(O)cc(O)cc2O[C@@H]1c1ccc(O)cc1 [Compound 178, Multifloraside]
[1]; [7]
  Activity % Inhibition at 12.5 μg/mL (biflavonoids): 0%

## COc1ccc(C(=O)/C=C/c2ccncc2)cc1 [Compound 70]
[1]; [7]
  Activity % inhibition at 12.5 μg/mL (chalcone-like compounds): 0%

## COc1ccc(-c2cc(=O)c3cc(C(=O)O)ccc3o2)cc1 [Compound 115]
[1]; [7]
  Activity % Inhibition at 12.5 μg/mL (flavones): 2%

## O=c1cc(-c2ccc(O)cc2)oc2ccccc12 [Compound 104]
[1]; [7]
  Activity % Inhibition at 12.5 μg/mL (flavones): 18%

## Nc1ncccc1C=CC(=O)c1cc(Cl)ccc1O [Compound 72]
[1]; [7]
  Activity % inhibition at 12.5 μg/mL (chalcone-like compounds): 0%

## O=C(/C=C/c1ccccc1)c1cc(Cl)ccc1O [Compound 26]
[1]; [7]
  Activity % inhibition at 12.5 μg/mL (chalcones): 67%
[1]; [8]
  inhibition of the growth of Mtb: 67%

## COc1ccc(-c2oc3c(I)cccc3c(=O)c2O)cc1 [Compound 113]
[1]; [7]
  Activity % Inhibition at 12.5 μg/mL (flavones): 6%

## O=C(C=Cc1ccccn1)c1ccccn1 [Compound 60]
[1]; [7]
  Activity % inhibition at 12.5 μg/mL (chalcone-like compounds): 42%

## COc1ccc(C(=O)/C=C/c2cccc(I)c2)c(O)c1 [Compound 43]
[1]; [7]
  Activity % inhibition at 12.5 μg/mL (chalcones): 47%
[1]; [8]
  inhibition of the growth of Mtb: 47%

## O=C(O)c1ccc2c(c1)C(=O)CC(c1ccccc1)O2 (centres unmarked) [Compound 146]
[1]; [7]
  Activity % Inhibition at 12.5 μg/mL (flavanones): 0%

## O=C(/C=C/c1ccccc1Br)c1ccccc1O [Compound 31]
[1]; [7]
  Activity % inhibition at 12.5 μg/mL (chalcones): 83%
[1]; [8]
  inhibition of the growth of Mtb: 83%

## Nc1ccccc1/C=C/C(=O)c1ccc(Br)cc1O [Compound 38]
[1]; [7]
  Activity % inhibition at 12.5 μg/mL (chalcones): 12%
[1]; [8]
  inhibition of the growth of Mtb: 8% and 12%

## COc1ccc2c(c1)OC(c1ccccc1)C(C1C(=O)c3ccc(OC)cc3OC1c1ccccc1)C2=O (centres unmarked) [Compound 160, 3-3″-Bi-(7-methoxyflavanone)]
[1]; [7]
  Activity % Inhibition at 12.5 μg/mL (biflavonoids): 0%

## O=c1cc(-c2ccc(Cl)c([N+](=O)[O-])c2)oc2ccccc12 [Compound 95]
[1]; [7]
  Activity % Inhibition at 12.5 μg/mL (flavones): 28%

## COc1ccc(/C=C/C(=O)c2cc(Br)ccc2O)cc1 [Compound 37]
[1]; [7]
  Activity % inhibition at 12.5 μg/mL (chalcones): 23%
[1]; [8]
  inhibition of the growth of Mtb: 23%
